Twelve compounds from PubChem BioAssay (NCI) can be followed below.

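Method: 48-hour compound exposure of cells in 96-well plates, five concentrations, linear interpolation of endpoints. TGI: concentration producing complete growth inhibition.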

Some test systems named below: EKVX NSCLC; MDA-MB-435; SR leukemia; MDA-N; LOX IMVI melanoma; HS 578T breast; MCF7 breast; 786-0 renal; SF-268 CNS; COLO 205 colon; A498 renal.
What all share (assay): NCI-60 cell line screen, 48 h

Regarding `Cc1cn2c(C)csc2c1P(=O)(OC(C)C)OC(C)C`, the TGI with EKVX NSCLC, in the assay on MDA-MB-435, with SR leukemia, with MDA-N, in the assay on LOX IMVI melanoma and in the assay on HS 578T breast was > 100 µM in each case. Also, the TGI with MCF7 breast, in the assay with 786-0 renal, in the assay on SF-268 CNS, in the assay with COLO 205 colon and with A498 renal was > 100 µM in each case.
For `CC/C(Cl)=N\OC(=O)Nc1ccc(F)c([N+](=O)[O-])c1`, the TGI with EKVX NSCLC is 35.6 µM; in the assay with MDA-MB-435 it was 33.5 µM; in the assay with SR leukemia, > 68.6 µM; in the assay with MDA-N it was 39.6 µM; in the assay on LOX IMVI melanoma, > 48.9 µM; in the assay on HS 578T breast, 31.7 µM. In addition, the TGI in the assay with MCF7 breast was > 37.8 µM; with 786-0 renal, 26.8 µM; in the assay with SF-268 CNS, 36.4 µM; with COLO 205 colon it was 6.58 µM; in the assay on A498 renal, 39.4 µM.
As to `C=C(C)[C@@]1(O[Si](C)(C)C)CCCC[C@@H]1CC(Sc1ccccc1)Sc1ccccc1`, the TGI is 32.1 µM in the assay on EKVX NSCLC; 31.6 µM in the assay with MDA-MB-435; 31.5 µM in the assay on SR leukemia; 32.7 µM with MDA-N; 37.2 µM in the assay with LOX IMVI melanoma; 29.7 µM in the assay on HS 578T breast. Also, the TGI worked out at 27.6 µM in the assay with MCF7 breast; 28.6 µM in the assay with 786-0 renal; 28.2 µM in the assay with SF-268 CNS; 38.9 µM in the assay with COLO 205 colon; 34.5 µM in the assay on A498 renal.
For the compound `Cc1cn([C@H]2C[C@](C)(CO)N(C)O2)c(=O)[nH]c1=O`, the TGI with EKVX NSCLC, in the assay on MDA-MB-435, in the assay on SR leukemia, in the assay on MDA-N, in the assay on LOX IMVI melanoma and in the assay on HS 578T breast was > 100 µM throughout. Also, the TGI with MCF7 breast, in the assay on 786-0 renal, in the assay on SF-268 CNS, with COLO 205 colon and in the assay with A498 renal was > 100 µM each time.
On to `COC(=O)C1(Cc2ccc3c(c2)CCC3)Cc2ccccc2C1=O` (stereo unspecified), for which the TGI is 73.7 µM in the assay with EKVX NSCLC; 18 µM in the assay on MDA-MB-435; > 100 µM in the assay on SR leukemia; 13.3 µM in the assay with MDA-N; 28.5 µM in the assay on LOX IMVI melanoma; 87.6 µM with HS 578T breast. For the same compound, the TGI with MCF7 breast is 70.1 µM; with 786-0 renal, > 100 µM; in the assay on SF-268 CNS, 70.7 µM; with COLO 205 colon, 30.4 µM; in the assay with A498 renal, 57.9 µM.
For the compound `N#CCCN(CCC#N)c1ccc(/C=C2\SC(=S)NC2=O)cc1Br`, the TGI in the assay with EKVX NSCLC is > 100 µM; in the assay on MDA-MB-435, > 100 µM; in the assay with SR leukemia, > 100 µM; with MDA-N, > 100 µM; with LOX IMVI melanoma, 80.7 µM; in the assay with HS 578T breast, 27.1 µM. The TGI with MCF7 breast, in the assay with 786-0 renal, with SF-268 CNS, with COLO 205 colon and in the assay on A498 renal was > 100 µM throughout.
On to `N#CC(=N)c1ncn(-c2ccccc2N)c1N`, for which the TGI in the assay on EKVX NSCLC, in the assay on MDA-MB-435, in the assay on SR leukemia, in the assay on MDA-N, in the assay on LOX IMVI melanoma and with HS 578T breast was > 100 µM in each case. Further, the TGI with MCF7 breast, with 786-0 renal, in the assay on SF-268 CNS, in the assay with COLO 205 colon and in the assay with A498 renal was > 100 µM throughout.
Consider `O=C1CS(=O)C23c4cc5ccccc5n4CCC2CCCN13` (stereo unspecified), for which the TGI with EKVX NSCLC, in the assay with MDA-MB-435, in the assay with SR leukemia, in the assay on MDA-N, with LOX IMVI melanoma and in the assay on HS 578T breast was > 100 µM throughout. The TGI with MCF7 breast, in the assay on 786-0 renal, with SF-268 CNS, with COLO 205 colon and in the assay on A498 renal was > 100 µM in each case.
Consider `COC(=O)C1=C(C)NC(C)=C([N+](=O)[O-])C1c1cccc(N=O)c1` (stereo unspecified), for which the TGI was 41.2 µM in the assay on EKVX NSCLC; 25.4 µM in the assay on MDA-MB-435; > 100 µM with SR leukemia; 21.6 µM in the assay with MDA-N; 30 µM in the assay with LOX IMVI melanoma; 39.1 µM with HS 578T breast. The TGI stood at 38.5 µM in the assay with MCF7 breast; 27.2 µM in the assay with 786-0 renal; 32 µM in the assay on SF-268 CNS; 29 µM with COLO 205 colon; 58.4 µM in the assay on A498 renal.
`COc1ccc(N=C2C(=S)N(c3ccc(OC)cc3)/C(=N/S(=O)(=O)c3ccccc3)N2c2ccccc2)cc1`: the TGI in the assay with EKVX NSCLC was 31.8 µM; with MDA-MB-435, 20.6 µM; with SR leukemia, > 66.4 µM; in the assay with MDA-N, 8.81 µM; in the assay with LOX IMVI melanoma, 16.9 µM; with HS 578T breast it was > 66.1 µM. In addition, the TGI with MCF7 breast was 35.8 µM; in the assay on 786-0 renal, 19.7 µM; in the assay with SF-268 CNS, 29.2 µM; in the assay with COLO 205 colon, 24.8 µM; in the assay on A498 renal, > 100 µM.
As for `O=c1n(Cc2ccccc2)c(=O)n2c(=O)n(Cc3ccccc3)c(=O)n12`, the TGI in the assay with MDA-MB-435, in the assay with SR leukemia, in the assay on MDA-N, in the assay on LOX IMVI melanoma, in the assay with HS 578T breast and with MCF7 breast was > 100 µM throughout. Also, the TGI in the assay with 786-0 renal, with SF-268 CNS, with COLO 205 colon and in the assay with A498 renal was > 100 µM throughout.
As for `CC1=C[C@@H](C)C[C@]2(C)CC[C@H](O2)[C@]23CC[C@](C(=O)O)(C[C@H](O2)[C@@H]2O[C@@](C)(CC2=O)[C@@H](O)[C@H]2CC[C@@]4(CCC[C@@H](O4)[C@H](C)C(=O)O[C@H]4C[C@H]([C@]5(O)OCC[C@H](C)[C@@H]5O)O[C@H]4C=C1)O2)O3`, the TGI with EKVX NSCLC is > 10 µM; in the assay on MDA-MB-435, > 10 µM; in the assay on SR leukemia, > 10 µM; in the assay on MDA-N it was > 10 µM; in the assay on LOX IMVI melanoma, > 10 µM; with HS 578T breast, > 5.94 µM. For the same compound, the TGI in the assay on MCF7 breast, in the assay on 786-0 renal, in the assay with SF-268 CNS, with COLO 205 colon and in the assay on A498 renal was > 10 µM in each case.
